Laboratory results reported in US12172993B2 (priority 2018, dated 2024).
Converted amounts (≈) assume the structure as drawn. Read-outs that look alike come from different tables or passages of the source.

Experiments:
[1] = system: M579-A2-luc; format: cell-based
[2] = system: murine plasma-proteins
[3] = in vivo; conditions: male, CD1, mouse, plasma
[4] = system: MDR1; experiment: in vitro; conditions: dog, MDCK-MDR1
[5] = human, microsomes
[6] = in vitro; conditions: dog, MDCK
[7] = system: human plasma-proteins
[8] = physchem; format: physicochemical
[9] = target: SRC (GST-HIS-tag) (Homo sapiens (Human), UniProt P12931); format: biochemical
[10] = in vitro; conditions: mouse, microsomes
[11] = target: SIK2 (Homo sapiens (Human), UniProt Q9H0K1); format: biochemical
[12] = target: SIK1 (Homo sapiens (Human), UniProt P57059); format: biochemical
[13] = mouse, microsomes
[14] = in vitro; conditions: human, microsomes
[15] = target: ABL1 wt (Homo sapiens (Human), UniProt P00519); format: biochemical
[16] = target: T1, SIK3 (Homo sapiens (Human), UniProt Q9Y2K2)
[17] = target: T1, SIK3; experiment: biochemical
[18] = system: MC38 cells; experiment: cells; conditions: Mus musculus, MC-38, 72 h, read-out: MC38 IC50 (nM at 100 ng/mL TNF)
[19] = in vivo; conditions: CD1, mouse, plasma, oral, 30 mg/kg; read-out: Free concentration (nM) at timepoint after 30 mg/kg po
[20] = system: NFKB activity; conditions: PANC-1 reporter cells, 10 ng/ml rHuTNF
[21] = system: HDAC4 phosphorylation; conditions: PANC-1 cells, 10 ng/mL rHuTNF, 3 h
[22] = humans; prescribing information; cited from earlier work

Chain of ABL1 wt (P00519 118-535 limits assumed): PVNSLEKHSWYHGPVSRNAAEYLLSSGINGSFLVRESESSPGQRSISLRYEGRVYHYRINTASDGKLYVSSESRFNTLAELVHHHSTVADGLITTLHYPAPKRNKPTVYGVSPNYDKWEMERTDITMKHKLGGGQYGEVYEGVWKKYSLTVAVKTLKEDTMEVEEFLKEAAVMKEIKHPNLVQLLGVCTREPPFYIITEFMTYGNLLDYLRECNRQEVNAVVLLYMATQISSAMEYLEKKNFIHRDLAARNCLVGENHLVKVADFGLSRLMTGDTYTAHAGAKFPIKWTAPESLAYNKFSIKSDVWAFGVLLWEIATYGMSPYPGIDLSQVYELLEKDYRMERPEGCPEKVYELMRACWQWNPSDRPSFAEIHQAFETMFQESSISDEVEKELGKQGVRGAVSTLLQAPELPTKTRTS

Cc1nc(Nc2ncc(C(=O)Nc3c(Cl)cccc3Br)s2)cc(N2CCN(CCO)CC2)n1 [Compound B1, N-(2-bromo-6-chlorophenyl)-2-((6-(4-(2-hydroxyethyl)piperazin-l-yl)-2-methylpyrimidin-4-yl)amino)thiazole-5-carboxamide]
cytotoxicity in the presence of TNF (10 ng/mL) compared to inhibitor alone [1]: increased cytotoxicity

Cc1nc(Nc2ncc(C(=O)Nc3c(Cl)ccnc3C)s2)cc(N2CCN(CCO)CC2)n1 [Compound B3, N-(4-chloro-2-methylpyridin-3-yl)-2-((6-(4-(2-hydroxyethyl)piperazin-1-yl)-2-methylpyrimidin-4-yl)amino)thiazole-5-carboxamide]
Percentage unbound (%) [2]: 11%
AUC(0-inf) ([3]; iv, 1 mg/kg): 0.45 µM·h
AUC(0-t) ([3]; iv, 1 mg/kg): 0.437 µM·h
Cmax ([3]; iv, 1 mg/kg): 1230 nM
MRT inf ([3]; iv, 1 mg/kg): 17.4 min
MRT last ([3]; iv, 1 mg/kg): 15 min
Tmax ([3]; iv, 1 mg/kg): 4.98 min
Vd ([3]; iv, 1 mg/kg): 1.31 L/kg
clearance ([3]; iv, 1 mg/kg): 75 mL/min/kg
AUC(0-inf) ([3]; po, 30 mg/kg): 0.687 µM·h
AUC(0-t) ([3]; po, 30 mg/kg): 0.589 µM·h
Cmax ([3]; po, 30 mg/kg): 202 nM
Tmax ([3]; po, 30 mg/kg): 30 min
bioavailability ([3]; po, 30 mg/kg): 4%
Papp [4]: 20 ×10⁻⁶ cm/s
Intrinsic clearance (L/min/mg) [5]: 24 µL/min/mg
half-life [5]: 58 min
% Remaining at 40 min (%) [5]: 60%
Papp [6]: 20 ×10⁻⁶ cm/s
Percentage unbound (%) [7]: 7%
solubility kinetic [8]: 82 µM (≈ 40.1 µg/mL)
solubility kinetic ([8]; kinetic from dmso stock): 82 µM (≈ 40.1 µg/mL)

COc1c(F)cccc1NC(=O)c1cnc(Nc2cc(N3CCN(CCO)CC3)nc(C)n2)s1 [Compound B4, N-(3-fluoro-2-methoxyphenyl)-2-((6-(4-(2-hydroxyethyl)piperazin-l-yl)-2-methylpyrimidin-4-yl)amino)thiazole-5-carboxamide]
cytotoxicity in the presence of TNF (10 ng/mL) compared to inhibitor alone [1]: fails to exhibit cytotoxicity

CCOc1cccc(Cl)c1NC(=O)c1cnc(Nc2cc(N3CCN(CCO)CC3)nc(C)n2)s1 [Compound B8, N-(2-chloro-6-ethoxyphenyl)-2-((6-(4-(2-hydroxyethyl)piperazin-l-yl)-2-methylpyrimidin-4-yl)amino)thiazole-5-carboxamide]
cytotoxicity in the presence of TNF (10 ng/mL) compared to inhibitor alone [1]: fails to exhibit cytotoxicity

Cc1nc(Nc2ncc(C(=O)Nc3c(C)ccnc3C)s2)cc(N2CCN(CCO)CC2)n1 [Compound C1, N-(2,4-dimethylpyridin-3-yl)-2-((6-(4-(2-hydroxyethyl)piperazin-1-yl)-2-methylpyrimidin-4-yl)amino)thiazole-5-carboxamide]
IC50 [9]: < 1.5 nM

Cc1nc(Nc2ncc(C(=O)Nc3ncccc3C)s2)cc(N2CCN(CCO)CC2)n1 [Compound C2, 2-((6-(4-(2-hydroxyethyl)piperazin-1-yl)-2-methylpyrimidin-4-yl)amino)-N-(3-methylpyridin-2-yl)thiazole-5-carboxamide]
half-life [10]: 40 min
IC50 [11]: 427 nM
Percentage unbound (%) [2]: 30%
IC50 [12]: 177 nM
Intrinsic clearance (L/min/mg) [13]: 35 µL/min/mg
% Remaining at 40 min (%) [13]: 48%
half-life [14]: > 86 min
IC50 [15]: 14.4 nM
IC50 [9]: < 1.5 nM
Intrinsic clearance (L/min/mg) [5]: < 17 µL/min/mg
% Remaining at 40 min (%) [5]: 69%
Percentage unbound (%) [7]: 9%
solubility kinetic [8]: 160 µM (≈ 72.7 µg/mL)
solubility kinetic ([8]; kinetic from dmso stock): 128 to 195 µM (≈ 58.2 to 88.6 µg/mL)

Cc1nc(Nc2ncc(C(=O)Nc3c(C)cncc3Cl)s2)cc(N2CCN(CCO)CC2)n1 [Compound C4, N-(3-chloro-5-methylpyridin-4-yl)-2-((6-(4-(2-hydroxyethyl)piperazin-1-yl)-2-methylpyrimidin-4-yl)amino)thiazole-5-carboxamide]
Percentage unbound (%) [2]: 14%
Intrinsic clearance (L/min/mg) [13]: 38 µL/min/mg
% Remaining at 40 min (%) [13]: 45%
IC50 [9]: < 1.5 nM
Intrinsic clearance (L/min/mg) [5]: 115 µL/min/mg
% Remaining at 40 min (%) [5]: 10%
Percentage unbound (%) [7]: 2%
solubility kinetic ([8]; kinetic from dmso stock): 128 µM (≈ 62.6 µg/mL)

Cc1nc(Nc2ncc(C(=O)Nc3c(C)cncc3C)s2)cc(N2CCN(CCO)CC2)n1 [Compound C5, N-(3,5-dimethylpyridin-4-yl)-2-((6-(4-(2-hydroxyethyl)piperazin-1-yl)-2-methylpyrimidin-4-yl)amino)thiazole-5-carboxamide]
IC50 [9]: < 1.5 nM

Cc1nc(Nc2ncc(C(=O)Nc3cccnc3C)s2)cc(N2CCN(CCO)CC2)n1 [Compound C6, 2-((6-(4-(2-hydroxyethyl)piperazin-1-yl)-2-methylpyrimidin-4-yl)amino)-N-(2-methylpyridin-3-yl)thiazole-5-carboxamide]
IC50 [9]: < 1.5 nM

Cc1nc(Nc2ncc(C(=O)Nc3c(C)nn(C)c3C)s2)cc(N2CCN(CCO)CC2)n1 [Compound C8, 2-((6-(4-(2-hydroxyethyl)piperazin-1-yl)-2-methylpyrimidin-4-yl)amino)-N-(1,3,5-trimethyl-1H-pyrazol-4-yl)thiazole-5-carboxamide]
Percentage unbound (%) [2]: 62%
Intrinsic clearance (L/min/mg) [13]: < 14 µL/min/mg
% Remaining at 40 min (%) [13]: 86%
Intrinsic clearance (L/min/mg) [5]: < 14 µL/min/mg
% Remaining at 40 min (%) [5]: 81%
Percentage unbound (%) [7]: 5%
solubility kinetic ([8]; kinetic from dmso stock): 128 to 195 µM (≈ 60.4 to 92 µg/mL)

Cc1nc(Nc2ncc(C(=O)Nc3c(C)noc3C)s2)cc(N2CCN(CCO)CC2)n1 [Compound C9]
half-life [10]: > 100 min
IC50 [11]: 232 nM
Percentage unbound (%) [2]: 44%
IC50 [12]: 169 nM
Intrinsic clearance (L/min/mg) [13]: < 14 µL/min/mg
% Remaining at 40 min (%) [13]: 83%
half-life [14]: > 100 min
IC50 [15]: 27.4 nM
IC50 [9]: 6.44 nM
Intrinsic clearance (L/min/mg) [5]: < 14 µL/min/mg
% Remaining at 40 min (%) [5]: 89%
Percentage unbound (%) [7]: 6%
solubility kinetic [8]: 174 µM (≈ 79.8 µg/mL)
solubility kinetic ([8]; kinetic from dmso stock): 128 to 195 µM (≈ 58.7 to 89.4 µg/mL)
IC50 [16]: 800 nM

Cc1nc(Nc2ncc(C(=O)Nc3c(Cl)ccnc3C)s2)cc(N2CCN(C)CC2)n1 [Compound C10]
IC50 [11]: 138 nM
IC50 [15]: 4.3 nM
IC50 [9]: < 1.5 nM
IC50 [16]: 493 nM

Cc1nc(NCCO)cc(Nc2ncc(C(=O)Nc3c(Cl)ccnc3C)s2)n1 [Compound C11, N-(4-chloro-2-methylpyridin-3-yl)-2-((6-((2-hydroxyethyl)amino)-2-methylpyrimidin-4-yl)amino)thiazole-5-carboxamide]
IC50 [9]: < 1.5 nM

Cc1nc(Nc2ncc(C(=O)Nc3c(Cl)csc3C)s2)cc(N2CCN(CCO)CC2)n1 [Compound D1, N-(4-chloro-2-methylthiophen-3-yl)-2-((6-(4-(2-hydroxyethyl)piperazin-1-y1)-2-methylpyrimidin-4-yl)amino)thiazole-5-carboxamidexs]
IC50 [17]: 40 to 45 nM
IC50 [18]: < 200 nM
concentration at 2 h [19]: 80 nM
concentration at 6 h [19]: 4 nM
concentration at 12 h [19]: 2.14 nM

Cc1nc(Nc2ncc(C(=O)Nc3c(Cl)csc3Cl)s2)cc(N2CCN(CCO)CC2)n1 [Compound D7, N-(2,4-dichlorothiophen-3-yl)-2-((6-(4-(2-hydroxyethyl)piperazin-1-yl)-2-methylpyrimidin-4-yl)amino)thiazole-5-carboxamide]
IC50 [17]: 15 to 20 nM
IC50 [18]: < 200 nM
concentration at 2 h [19]: 43 nM
concentration at 6 h [19]: 5 nM
concentration at 12 h [19]: 1.1 nM

CC(=O)N1CCN(c2cc(Nc3ncc(C(=O)Nc4c(C)csc4Cl)s3)nc(C)n2)CC1 [Compound D8, 2-((6-(4-acetylpiperazin-1-yl)-2-methylpyrimidin-4-yl)amino)-N-(2-chloro-4-methylthiophen-3-yl)thiazole-5-carboxamide]
IC50 [18]: > 200 nM
IC50 [16]: ~150 nM

Cc1nc(Nc2ncc(C(=O)Nc3c(C)csc3Cl)s2)cc(N2CCN(C)CC2)n1 [Compound D9, N-(2-chloro-4-methylthiophen-3-yl)-2-((2-methyl-6-(4-methylpiperazin-1-yl)pyrimidin-4-yl)amino)thiazole-5-carboxamide]
IC50 [18]: < 100 nM
Inhibition of NFKB activity [20]: +
concentration at 2 h [19]: 44 nM
concentration at 6 h [19]: 8 nM
concentration at 12 h [19]: 2.71 nM
Inhibition of HDAC4 phosphorylation [21]: +
IC50 [16]: ~60 nM

Cc1cn(-c2cc(NC(=O)c3ccc(C)c(Nc4nccc(-c5cccnc5)n4)c3)cc(C(F)(F)F)c2)cn1 [nilotinib]
terminal / elimination half-life [22]: approximately 17 hours
